Laboratory results as given in patent US11542298B2, “Hydroxysteroid compounds, their intermediates, process of preparation, composition and uses thereof” (Epirium Bio Inc., priority 2014, dated 2023).
Several values for one entry are separate records, joined by “and”; a condition that tells them apart may be missing. Equal values may be shown once.

How the values were obtained:
[1] = test system: AMP KINASE; assay: AMP KINASE phosphorylation, cell-based fluorescent ELISA (BioAssay Systems)
Protocol: The compounds of the present invention were tested for their activity on AMP KINASE. The activity on AMP KINASE was evaluated by quantitative fluorescent immunoenzymatic assay of AMP KINASE phosphorylation status in cultured cells. The 5-AMP-activated protein kinase (AMP KINASE) is a key sensor of intracellular energy balance. AMP KINASE is activated in response to an increase in the AMP/ATP ratio which can be caused by a number of factors such as muscle contraction, starvation, or hypoxia. AMP KINASE is a heterotrimeric protein complex comprising of α—(63 kDa), β—(38 kDa) and γ—(38 kDa) subunits. For each subunit, isoforms have been identified (α1, α2, β1, β2, γ1, γ2, γ3) which theoretically allow the formation of 12 different proteins. The α-subunit contains a serine/threonine kinase domain and the regulatory subunits contain binding sites for AMP and ATP (γ-subunit) and for glycogen (β-subunit). AMP KINASE is activated by phosphorylation on Thr-172 within the catalytic domain. AMP binding results in a 2 to 5-fold increase in AMP KINASE activity compared to the basal level. Binding of AMP to the γ-subunit causes allosteric activation of the kinase and induces a conformational change in the kinase domain that protects AMP KINASE from dephosphorylation of Thr-172.
BioAssay Systems' cell-based ELISA measure phosphorylated AMP KINASE in whole cells and normalizes the signal to the total protein content. The antibody recognizes both α-subunits and, thus, can be used for cells from all tissues (human, mouse, rat). This simple and efficient assay eliminates the need for cell lysate preparation and can be used to study AMP KINASE regulation in short-term and long-term assays. In this assay, cells grown in 96-well plates are fixed and permeabilized in the wells. AMP KINASE phosphorylation (pAMPK) is measured using a fluorescent ELISA followed by total protein measurement in each well.
A few illustrative compounds of the present invention were tested at 10 nM and the AMPkinase activation of the compounds is listed at Table 2: […]

[2] = test system: AMP KINASE; assay: AMP KINASE activation, cell based ELISA in Hepatoma (Hep 2) liver cells; conditions: 30 m, over baseline of 100 (DMSO control)
Protocol: AMP KINASE activation potential of the compounds was evaluated using cell based ELISA·Hepatoma (Hep 2) liver cells were maintained in a T 75 culture flask-containing 25 mM DMEM+10% fetal calf serum. The cells were maintained in a T 75 culture flask-containing medium (DMEM+10% fetal calf serum). On reaching a confluence of 70 to 80%, the cells were seeded in a 96 well plate at a density of 40,000 cells per well in 25 mM DMEM+10% FCS medium. The plates were then incubated at 37° C. with 5% CO2 for 24 hours. Various concentrations of drugs were prepared in DMSO and diluted to required concentration with the medium and incubated at 37° C. with 5% CO2 for 30 min and 1 h for Epicatechin analogs and 11-BHP analogs respectively. Metformin was used as positive control·Cells were fixed with 4% formaldehyde for 30 minutes at room temperature and washed three times with PBS containing 0.1% Triton X-100. Endogenous peroxidase was quenched with 1% H2O2 in PBS-T (0.1% Tween 20) for 30 minutes and washed three times in PBS-T. Cells were blocked with 1% BSA in PBS-T for 1 hour. The cells were incubated with 1:1000 dilution primary antibody (Phospho-AMPKα ([…]) Rabbit mAb, Cell Signaling in PBS-T containing 5% BSA at 4° C. overnight. The cells were then washed three times with PBS-T for 5 minutes and incubated with 1:1000 dilution secondary antibody (Anti-rabbit IgG, HRP-linked Antibody, Cell Signaling) in PBS-T with 1% BSA for 1 hour at RT·Cells were washed three times with PBS-T for 5 minutes The cells were incubated with 100 μl TMB substrate solution for 30 minutes and the reaction was stopped with 100 μl of 2N H2SO4. Then the plate was read at 450 nm using ELISA plate reader and absorbance recorded. % activity was calculated using DMSO control as 100%.

| Structure (SMILES) | AMPKinase Activation at 10 nM [1] | also measured |
| --- | --- | --- |
| C[C@]12CCC(=O)NC1=CCC1C2[C@@H](O)C[C@]2(C)C(=O)CCC12 (stereo partly drawn) [Compound 1005, (4aR,5S,6aS)5-hydroxy-4a,6a-dimethyl-4,4a,4b,5,6,6a,9,9a,9b,- 10-decahydro-1H-indeno[5,4-f]-quinoline-2,7(3H,8H)-dione] | 1.85 |  |
| CC(=O)C1CCC2C3CC=C4NC(=O)CC[C@]4(C)C3[C@@](C)(O)C[C@]12C (stereo partly drawn) [Compound 1008, (4aR,5S,6aS)-7-acetyl-4,4a,4b,5,- 6,6a,7,8,9,9a,9b,10-dodecahydro-5-hydroxy-4a,5,6a-trimethyl-1H-indeno[5,4-f]quinolin-2(3H)-one] | 1.97 |  |
| C[C@]12C=CC(=O)C=C1CCC1C2[C@@H](O)C[C@@]2(C)C1CC[C@@H]2C(=O)O (stereo partly drawn) [Compound 1013, (10R,11S,13S,17S)-11-hydroxy-10,13-dimethyl-3-oxo-6,7,8,9,- 10,11,12,13,14,15,16,17-dodeca-hydro-3H-cyclopenta[a]-phenan-threne-17-carboxylic acid] | 1.79 |  |
| CN(C)C(=O)[C@H]1CCC2C3CCC4=CC(=O)C=C[C@]4(C)C3[C@@H](O)C[C@@]21C (stereo partly drawn) [Compound 1014, (10R,11S,13S,17S)-11-hydroxy-N,N,10,13-tetramethyl-3-oxo-6,7,8,9,10,11,12,13,14,15,16,17-dodecahydro-3H-cyclopenta[a]-phenanthrene-17-carboxamide] | 1.80 |  |
| CC(=O)[C@H]1CCC2C3CCC4=CC(=O)C=C[C@]4(C)C3[C@@H](O)C[C@@]21C (stereo partly drawn) [Compound 1015, (10R,11S,13S,17S)-17-acetyl-11-hydroxy-10,13-dimethyl-6,7,8,9,- 10,11,12,13,14,13,16,17-dodeca-hydro-3H-cyclopenta[a]-phenan-thren-3-one] | 2.23 |  |
| CC(O)[C@H]1CCC2C3CCC4=CC(=O)C=C[C@]4(C)C3[C@@H](O)C[C@@]21C (stereo partly drawn) [Compound 1016, (10R,11S,13S,17S)-11-hydroxy-17-((R)-1-hydroxyethyl)-10,13-dimethyl-6,7,8,9,10,11,12,13,- 14,15,16,17-dodecahydro-3H-cyclopenta[a]phenanthren-3-one] | 2.38 |  |
| C[C@]12CCC(=O)NC1=CCC1C2[C@@H](O)C[C@@]2(C)C1CCC21OCCO1 (stereo partly drawn) [Compound 1017, (4a′R,5′S,6a′S)-5′-hydroxy-4a′,6a′-dimethyl-3′,4′,4a′,4b′,5′,6′,6a′,8′,- 9′,9a′,9b′,10′-dodecahydrospiro-[[1,3]dioxolane-2,7′-indeno[5,4-f]-quinolin]-2′(1′H)-one] | 2.08 |  |
| C[C@]12CCC(=O)NC1=CCC1C2[C@](C)(O)C[C@]2(C)C(=O)CCC12 (stereo partly drawn) [Compound 1018, (4aR,5R,6aS)-5-hydroxy-4a,5,6a-trimethyl-4,4a,4b,5,6,6a,9,9a,9b,- 10-decahydro-1H-indeno[5,4-f]-quinoline-2,7(3H,8H)-dione] | 2.19 |  |
| C[C@]12C[C@H](O)C3C(CC=C4NC(=O)CC[C@@]43C)C1CCC2O (stereo partly drawn) [Compound 1019, (4aR,5S,6aS)-5,7-dihydroxy-4a,6a-dimethyl-4,4a,4b,5,6,6a,- 7,8,9,9a,9b,10-dodecahydro-1H-indeno[5,4-f]quinolin-2(3H)-one] | 2.23 |  |
| C[C@]12CCC(=O)NC1=CCC1C2[C@@H](O)C[C@]2(C)/C(=N\O)CCC12 (stereo partly drawn) [Compound 1021, (4aR,5S,6aS,Z)-5-hydroxy-7-(hydroxyimino)-4a,6a-dimethyl-4,4a,4b,5,6,6a,7,8,9,9a,9b,10-dodecahydro-1H-indeno[5,4-f]-quinolin-2(3H)-one] | 2.23 |  |
| CN1C(=O)CC[C@@]2(C)C1=CCC1C3CCC(O)[C@@]3(C)C[C@H](O)C12 (stereo partly drawn) [Compound 1022, (4aR,5S,6aS)-5,7-dihydroxy-1,4a,6a-trimethyl-4,4a,4b,5,6,6a,- 7,8,9,9a,9b,10-dodecahydro-1H-indeno[5,4-f]quinolin-2(3H)-one] | 2.87 |  |
| C[C@]12CCC(=O)NC1CCC1C3CCC(O)[C@@]3(C)C[C@H](O)C12 (stereo partly drawn) [Compound 1023, (4aR,5S,6aS)-5,7-dihydroxy-4a,6a-dimethyltetradecahydro-1H-indeno[5,4-f]quinolin-2(3H)-one] | 2.46 |  |
| CC1([C@H]2CCC3C4CC=C5NC(=O)CC[C@]5(C)C4[C@@H](O)C[C@@]32C)OCCO1 (stereo partly drawn) [Compound 1025, (4aR,5S,6aS,7S)-5-hydroxy-4a,6a-dimethyl-7-(2-methyl-1,3-dioxolan-2-yl)-4,4a,4b,5,6,6a,- 7,8,9,9a,9b,10-dodecahydro-1H-indeno[5,4-f]quinolin-2(3H)-one] | 2.11 |  |
| CC1([C@H]2CCC3C4CC=C5NC(=O)CC[C@]5(C)C4[C@@](C)(O)C[C@@]32C)OCCO1 (stereo partly drawn) [Compound 1026, (4aR,5S,6aS,7S)-5-hydxoxy-4a,5,6a-trimethyl-7-(2-methyl-1,3-dioxolan-2-yl)-4,4a,4b,5,6,6a,- 7,8,9,9a,9b,10-dodecahydro-1H-indeno[5,4-f]quinolin-2(3H)-one] | 1.69 and 2.17 |  |
| C[C@]12CCC(=O)NC1=CCC1C2[C@@H](O)C[C@@]2(C)C1CC[C@@H]2C(=O)O (stereo partly drawn) [Compound 1027, (4aR,5S,6aS,7S)-5-hydroxy-4a,6a-dimethyl-2-oxo-2,3,4,4a,4b,5,6,- 6a,7,8,9,9a,9b,10-tetradecahydro-1H-indeno[5,4-f]quinoline-7-carboxylic acid] | 1.85 |  |
| COc1ccc2c(c1)CCC1C2[C@@H](O)C[C@]2(C)C(C(C)O)CCC12 (stereo partly drawn) [Compound 1030, (11S,13S)-17-(1-hydroxyethyl)-3-methoxy-13-methyl-7,8,9,11,12,- 13,14,15,16,17-decahydro-6H-cyclopenta[a]phenanthren-11-ol] | 1.51 |  |
| Cc1ccc(O)c2c1C1C(CC2)C2CC[C@H](C(=O)O)[C@@]2(C)C[C@@H]1O (stereo partly drawn) [Compound 1035, (11S,13S,17S)-4,11-dihydroxy-1,13-diinethyl-7,8,9,11,12,13,- 14,15,16,17-decahydro-6H-cyclopenta[a]phenanthrene-17-carboxylic acid] | 1.76 |  |
| CC(C)(O)[C@H]1CCC2C3CC=C4NC(=O)CC[C@]4(C)C3[C@@H](O)C[C@@]21C (stereo partly drawn) [Compound 1038, (4aR,5S,6aS,7S)-5-hydroxy-7-(2-hydroxypropan-2-yl)-4a,6a-dimethyl-4,4a,4b,5,6,6a,7,8,9,- 9a,9b,10-dodecahydro-1H-indeno-[5,4-f]quinolin-2(3H)-one] | 1.70 |  |
| CC(=O)C1CC[C@H]2[C@@H]3CCC4=CC(=O)CC[C@]4(C)[C@H]3[C@@H](O)C[C@]12C (stereo partly drawn) [Compound 1040, (8S,9S,10R,11S,13S,14S)-17-acetyl-11-hydroxy-10,13-dimethyl-6,7,8,9,10,11,12,13,- 14,15,16,17-dodecahydro-1H-cyclopenta[a]phenanthren-3(2H)-one] |  | % pAMPK ([2]; 0.1 nM): 118% |
| CN(C)C(=N)N=C(N)N [Metformin, reference compound] |  | % pAMPK ([2]; 2 mM): 121% |
